Experimental data taken from patent publication US20070203163A1, “Novel Treatment Of Irritable Bowel Syndrome 1” (priority 2003, published 2007).

Test system: visceromotor response to colorectal distension
Assay: Visceromotor response to isobaric colorectal distension in rats
Format: in vivo, rats (Sprague Dawley)
From the text: In this study the effect of acute administration of a compound on the visceromotor response to isobaric colorectal distension in rats is investigated (Ritchie J. Pain from distension of the pelvic colon by inflating a balloon in the irritable bowel syndrome. Gut 1973; 6: 105-112. Ness T J, Gebhart G F. Colorectal distension as a noxious visceral stimulus: physiological and pharmacological characterization of pseudoeffective reflexes in the rat. Brain Research 1988; 450: 153-169).
Colorectal distension (CRD) is performed in all rats (Sprague Dawley) using a paradigm of 12 consecutive distensions (or pulses) at 80 mmHg for 30 seconds each with 4.5 minute intervals (12×80 mmHg). The visceromotor respbnse is determined by quantifying phasic changes in the balloon pressure, which is processed by specially designed computer software. The compound is dissolved in saline and administered at the doses of 1, 3 and 10 μmol/kg. The compound is given intravenously in a volume of 1 mL/kg between the third and fourth distension.

Row | Structure (SMILES) | effect on visceromotor response (VMR) to colorectal distension (1 μmol/kg i.v.) | effect on visceromotor response (VMR) to colorectal distension (3 μmol/kg i.v.) | effect on visceromotor response (VMR) to colorectal distension (10 μmol/kg i.v.) | average visceromotor response (VMR) during colorectal distension, relative to vehicle treated (100±19) (10 μmol/kg i.v., CRD 12×80 mmHg, mean±SEM, n=8) [%]
1 | Cc1cccc(C#Cc2ccccc2)n1 [MPEP, 2-methyl-6-(phenylethynyl)-pyridine] | No effect | modest effect during a few distensions only | decreased the visceromotor response (VMR) | 46±11
2 | COCc1cc(C#N)cc(-c2nc(-c3ccc(F)cn3)no2)c1 [3-[3-(5-Fluoro-pyridin-2-yl)-[1,2,4]oxadiazol-5-yl]-5-methoxymethyl-benzonitrile] | transient inhibitory effect |  |  | 
